Among the data in PubChem BioAssay (NCI) are TGI values, retold here.

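96-well plates; 48 h exposure; 5 concentrations. Endpoints by linear interpolation between flanking doses. Not reached: highest tested concentration assigned. TGI: concentration producing complete growth inhibition.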

For one test, the system named is NCI/ADR-RES ovarian. The test is described as follows: DTP human tumour cell line panel, 48 h.
One may read the TGI as the concentration at which net growth stops. Low readings indicate more potent growth arrest, high ones less potent growth arrest. For `Nc1nc(SCCc2ccccc2)c2[nH]cnc2n1`, the TGI is more than 100 µM.

As to `O=C1CC(NC(=O)C(F)(F)F)c2c(Br)sc(N3CCNCC3)c21` (configuration not stated), the TGI was more than 100 µM.

Take `c1ccc(-c2nc(-c3ccccc3SSc3ccccc3-c3nc(-c4ccccc4)nn3-c3ccccc3)n(-c3ccccc3)n2)cc1`: the TGI was more than 100 µM.

For the molecule `N#CC1(C#N)N[C@@H](c2ccsc2)[C@H]2C(=O)N(c3ccccc3)C(=O)[C@H]21`, the TGI is more than 100 µM.

The next test concerns PC-3 prostate. The experiment in a line: DTP human tumour cell line panel, 48 h.
In the case of `CCCCCCc1cc2cc(-c3csc(CC#N)n3)c(=O)oc2cc1O`, the TGI was more than 100 µM.

`CC(=O)NC(Cc1ccc(O)cc1)C(=O)O` (configuration not stated) registered a TGI of more than 100 µM.

For `O=C1CSC(c2ccc(Cl)cc2)N1c1ccc(Oc2ccc(Cl)cc2)c(Cl)c1` (configuration not stated), the TGI turned out to be 31.3 µM.

`Nn1c(-c2ccccc2)nn(C(=O)c2ccccc2)c1=O`: the TGI is more than 100 µM.

In turn, `COC(=O)C([C@H](NC1(c2ccccc2)c2ccccc2-c2ccccc21)C(=O)OC)N(NC(=O)OCc1ccccc1)C(=O)OCc1ccccc1` (mixture of isomers) showed a TGI of more than 100 µM.

In the case of `CC[C@@H]1CC[C@@H]2[C@H](CC[C@]3(C)[C@@H](OC(C)=O)CC[C@@H]23)[C@H]1COC(C)=O`, the TGI was more than 100 µM.

Molecule `Cc1ccc(N=NC(=Nc2ccccc2)c2ccc(N(CCC#N)CCC#N)cc2)cc1` gave a TGI of 59.9 µM.

Take `O=c1ccc(-c2ccccc2)n[nH]1`: the concentration for total growth inhibition (TGI) is more than 100 µM.

The molecule `CC(=O)O[C@@H]1[C@H](C(C)C)[C@@H](OC(C)=O)C/C(C)=C/CC[C@]2(C)O[C@@H]12` registered a TGI of more than 100 µM.

Regarding `CN1CCc2cc(N)cc3c2C1Cc1ccc(O)c(O)c1-3` (configuration not stated), the TGI is more than 100 µM.

In the case of `Nc1nc(Cl)cc(NCC2(CO)CC(=O)C2)n1`, the TGI is more than 100 µM.

For the molecule `O=C(N/N=C(/COc1ccc(Cl)cc1)N=Cc1ccncc1)c1ccncc1`, the TGI is more than 100 µM.

For `COc1ccc2cc(NC(=O)N/N=C\c3ccc([N+](=O)[O-])cc3)ccc2c1`, the TGI was more than 100 µM.

`COc1cc2nc3n(c(=O)c2cc1OC)-c1ccc([N+](=O)[O-])cc1C3=O` registered a TGI of more than 100 µM.

For `COc1cc(Br)cc2cc(-c3cn4ccsc4n3)c(=O)oc12`, the TGI was more than 100 µM.

Regarding `COc1ccc(N/N=C2\CCOc3ccc(C)cc3C2=O)cc1`, the TGI is more than 100 µM.

The molecule `COC(=O)C1SC(SC)=NC12c1ccccc1Nc1ccccc12` (configuration not stated) registered a TGI of 87 µM.

As to `Nc1nc(SCCc2ccccc2)c2[nH]cnc2n1`, the TGI is more than 100 µM.

`O=C1CC(NC(=O)C(F)(F)F)c2c(Br)sc(N3CCNCC3)c21` (configuration not stated) had a TGI of more than 100 µM.

For the molecule `c1ccc(-c2nc(-c3ccccc3SSc3ccccc3-c3nc(-c4ccccc4)nn3-c3ccccc3)n(-c3ccccc3)n2)cc1`, the TGI is more than 100 µM.

`N#CC1(C#N)N[C@@H](c2ccsc2)[C@H]2C(=O)N(c3ccccc3)C(=O)[C@H]21` yielded a TGI of more than 100 µM.

The subject of a further test is SF-268 CNS. The experiment in a line: DTP human tumour cell line panel, 48 h.
In turn, `CCCCCCc1cc2cc(-c3csc(CC#N)n3)c(=O)oc2cc1O` gave a TGI of more than 100 µM.

In turn, `CC(=O)NC(Cc1ccc(O)cc1)C(=O)O` (configuration not stated) showed a TGI of more than 100 µM.

As to `O=C1CSC(c2ccc(Cl)cc2)N1c1ccc(Oc2ccc(Cl)cc2)c(Cl)c1` (configuration not stated), the TGI is 24 µM.

Molecule `Nn1c(-c2ccccc2)nn(C(=O)c2ccccc2)c1=O` yielded a TGI of more than 100 µM.

For `COC(=O)C([C@H](NC1(c2ccccc2)c2ccccc2-c2ccccc21)C(=O)OC)N(NC(=O)OCc1ccccc1)C(=O)OCc1ccccc1` (mixture of isomers), the TGI is more than 100 µM.

`CC[C@@H]1CC[C@@H]2[C@H](CC[C@]3(C)[C@@H](OC(C)=O)CC[C@@H]23)[C@H]1COC(C)=O`: the TGI was 92.5 µM.

`Cc1ccc(N=NC(=Nc2ccccc2)c2ccc(N(CCC#N)CCC#N)cc2)cc1` had a TGI of more than 100 µM.

Take `O=c1ccc(-c2ccccc2)n[nH]1`: the TGI was more than 100 µM.

The molecule `CC(=O)O[C@@H]1[C@H](C(C)C)[C@@H](OC(C)=O)C/C(C)=C/CC[C@]2(C)O[C@@H]12` returned a TGI of more than 100 µM.

For `CN1CCc2cc(N)cc3c2C1Cc1ccc(O)c(O)c1-3` (configuration not stated), the TGI was more than 100 µM.

`Nc1nc(Cl)cc(NCC2(CO)CC(=O)C2)n1` gave a TGI of more than 100 µM.

Take `O=C(N/N=C(/COc1ccc(Cl)cc1)N=Cc1ccncc1)c1ccncc1`: the TGI was more than 100 µM.

`COc1ccc2cc(NC(=O)N/N=C\c3ccc([N+](=O)[O-])cc3)ccc2c1`: the total growth inhibition concentration (TGI) amounted to 55.4 µM.

Consider `COc1cc2nc3n(c(=O)c2cc1OC)-c1ccc([N+](=O)[O-])cc1C3=O`, for which the TGI was more than 100 µM.

In turn, `COc1cc(Br)cc2cc(-c3cn4ccsc4n3)c(=O)oc12` registered a TGI of more than 100 µM.

The molecule `COc1ccc(N/N=C2\CCOc3ccc(C)cc3C2=O)cc1` registered a TGI of more than 100 µM.

In turn, `COC(=O)C1SC(SC)=NC12c1ccccc1Nc1ccccc12` (configuration not stated) showed a TGI of more than 100 µM.

Regarding `Nc1nc(SCCc2ccccc2)c2[nH]cnc2n1`, the TGI is more than 100 µM.

`O=C1CC(NC(=O)C(F)(F)F)c2c(Br)sc(N3CCNCC3)c21` (configuration not stated) showed a TGI of more than 100 µM.

`c1ccc(-c2nc(-c3ccccc3SSc3ccccc3-c3nc(-c4ccccc4)nn3-c3ccccc3)n(-c3ccccc3)n2)cc1`: the TGI was more than 100 µM.

Take `N#CC1(C#N)N[C@@H](c2ccsc2)[C@H]2C(=O)N(c3ccccc3)C(=O)[C@H]21`: the TGI was more than 100 µM.

Another test deals with T-47D breast. The test is described as follows: DTP human tumour cell line panel, 48 h.
Molecule `CCCCCCc1cc2cc(-c3csc(CC#N)n3)c(=O)oc2cc1O` showed a TGI of more than 100 µM.

For the molecule `CC(=O)NC(Cc1ccc(O)cc1)C(=O)O` (configuration not stated), the TGI was more than 100 µM.

Turning to `O=C1CSC(c2ccc(Cl)cc2)N1c1ccc(Oc2ccc(Cl)cc2)c(Cl)c1` (configuration not stated), the concentration for total growth inhibition (TGI) is 24.9 µM.

With `Nn1c(-c2ccccc2)nn(C(=O)c2ccccc2)c1=O`, the total growth inhibition concentration (TGI) was more than 100 µM.

As to `COC(=O)C([C@H](NC1(c2ccccc2)c2ccccc2-c2ccccc21)C(=O)OC)N(NC(=O)OCc1ccccc1)C(=O)OCc1ccccc1` (mixture of isomers), the TGI was more than 100 µM.

`CC[C@@H]1CC[C@@H]2[C@H](CC[C@]3(C)[C@@H](OC(C)=O)CC[C@@H]23)[C@H]1COC(C)=O` came in with a TGI of more than 100 µM.

`Cc1ccc(N=NC(=Nc2ccccc2)c2ccc(N(CCC#N)CCC#N)cc2)cc1` came in with a concentration for total growth inhibition (TGI) of more than 100 µM.

With `O=c1ccc(-c2ccccc2)n[nH]1`, the TGI is more than 100 µM.

Take `CC(=O)O[C@@H]1[C@H](C(C)C)[C@@H](OC(C)=O)C/C(C)=C/CC[C@]2(C)O[C@@H]12`: the TGI was more than 100 µM.

Molecule `CN1CCc2cc(N)cc3c2C1Cc1ccc(O)c(O)c1-3` (configuration not stated) gave a TGI of more than 100 µM.

Turning to `Nc1nc(Cl)cc(NCC2(CO)CC(=O)C2)n1`, the TGI is more than 100 µM.

Take `O=C(N/N=C(/COc1ccc(Cl)cc1)N=Cc1ccncc1)c1ccncc1`: the TGI was more than 100 µM.

`COc1ccc2cc(NC(=O)N/N=C\c3ccc([N+](=O)[O-])cc3)ccc2c1` yielded a TGI of more than 100 µM.

The molecule `COc1cc2nc3n(c(=O)c2cc1OC)-c1ccc([N+](=O)[O-])cc1C3=O` gave a TGI of more than 100 µM.

For the molecule `COc1cc(Br)cc2cc(-c3cn4ccsc4n3)c(=O)oc12`, the TGI is more than 100 µM.

On to `COc1ccc(N/N=C2\CCOc3ccc(C)cc3C2=O)cc1`, for which the TGI amounted to 42.4 µM.

Turning to `COC(=O)C1SC(SC)=NC12c1ccccc1Nc1ccccc12` (configuration not stated), the TGI was more than 100 µM.

On to `Nc1nc(SCCc2ccccc2)c2[nH]cnc2n1`, for which the TGI is more than 100 µM.

`O=C1CC(NC(=O)C(F)(F)F)c2c(Br)sc(N3CCNCC3)c21` (configuration not stated) yielded a TGI of more than 100 µM.

Turning to `c1ccc(-c2nc(-c3ccccc3SSc3ccccc3-c3nc(-c4ccccc4)nn3-c3ccccc3)n(-c3ccccc3)n2)cc1`, the TGI was more than 100 µM.

The molecule `N#CC1(C#N)N[C@@H](c2ccsc2)[C@H]2C(=O)N(c3ccccc3)C(=O)[C@H]21` came in with a TGI of more than 100 µM.
